According to the METLIN SMRT retention time set (Domingo-Almenara et al. 2019):

Test: gradient 5% acetonitrile 3 min, to 50% in 2 min, to 85% in 15 min, held 3 min, 100 µL/min
Conditions: column: Zorbax Extend-C18 2.1 x 50 mm; eluents: water / acetonitrile, 0.1% formic acid
Procedure, shortened: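 Data were gathered over 3 months by HPLC coupled to a quadrupole time-of-flight mass spectrometer, operated in positive and negative ionization mode. Mixtures of ~100 pure standards ran on a Zorbax Extend-C18 column (2.1 × 50 mm, 1.8 μm) at 100 μL/min, with water and acetonitrile each containing 0.1% formic acid and dead and dwell volumes of 40 μL and 900 μL. Retention time was read from adduct peaks picked by computer and checked manually.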

RP-LC retention time [s]	SMILES
775	Cc1cc(N2CCN(S(=O)(=O)c3ccc(F)c(F)c3)CC2)nc(N2CCCCC2)n1
859	Cc1ccc(NC(=O)C2CCCN(S(=O)(=O)c3c[nH]c(C(=O)N4CCCC4)c3)C2)cc1F (stereo not drawn)
1140	O=c1c2sccc2n(Cc2nc(-c3ccc(F)cc3)no2)c(=O)n1CCc1ccccc1
1060	COc1ccc(S(=O)(=O)Cc2nc(-c3cccc(C(F)(F)F)c3)no2)cc1
1010	O=C(Nc1ccc2c(c1)CN(S(=O)(=O)c1ccccc1)CC2)c1cc(-c2ccco2)on1
1050	CCCN1C(=O)c2cc(S(=O)(=O)Nc3ccc(F)cc3F)ccc2Oc2cccnc21
717	O=C(Nc1cc(F)c(F)c(F)c1)N1C[C@H]2C[C@H](C1)[C@H]1CCCC(=O)N1C2
989	CCc1nn(CC)c(=O)c2cc(S(=O)(=O)NCc3ccc(Cl)cc3)cn12
627	Cc1ccc(-c2nc3cccnc3n2CCN2CCN(C(=O)NC3CCCC3)CC2)cc1
613	COc1cc(C(=O)N2CCN(c3cc(C(C)C)n4cnnc4n3)CC2)cc(OC)c1OC
684	Cc1nc(C)c(C(=O)N2CCC(N3C(=O)C4(CCCC4)C3c3scnc3C)CC2)s1 (stereo not drawn)
1100	O=S(=O)(c1ccc(-c2noc(-c3ccccc3Cl)n2)cc1)N1CCOCC1
1100	CCOC(=O)CC1=CC(SCC(=O)N(C)c2ccccc2)=Nc2ccccc2N1
624	COc1ccc(NC(=O)N2CCN(CCn3c(C(F)(F)F)nc4cccnc43)CC2)cc1
848	Cn1cnc2ccc(-c3noc(-c4ccc(Br)cc4)n3)cc21
599	CC1CCCN(CCCNC(=O)C(=O)Nc2ccc3nc4n(c(=O)c3c2)CCCCC4)C1 (stereo not drawn)
872	CCC(C(=O)N(C)CCc1noc(-c2ccc(C(=O)N3CCCC3)cc2)n1)c1ccccc1 (stereo not drawn)
1000	CN(CC(=O)Nc1ccc(F)c(F)c1F)c1nc2c(Cl)cccc2s1
980	COc1cc(Cl)c(NS(=O)(=O)c2c(C)sc(C)c2-c2n[nH]c(C)c2C)c(OC)c1
623	COc1cc(C)c(Cc2cnc(N)nc2N)cc1OC

RP-LC retention time [s]	SMILES
924	COc1cc(/C=C(\OC(C)=O)c2ccc3c(c2)OCO3)cc(OC)c1OC
672	O=C(Cn1cnc2ccccc2c1=O)NC1CCCC1
681	COc1ccc(-c2cc3n(n2)CCCN(C(=O)NCC2CCCO2)C3)cc1 (stereo not drawn)
1020	COc1cc(OC)cc(-c2nnc(Cc3nc(-c4ccccc4)no3)o2)c1
1030	O=C1CC(c2nc(-c3cccc(Cl)c3)no2)CN1c1ccc2c(c1)OCO2 (stereo not drawn)
736	CCOc1ccc(N2CC(c3nc(-c4ccncc4)no3)CC2=O)cc1 (stereo not drawn)
725	Cc1ccc(C)c(S(=O)(=O)Nc2ccc(Cn3cncn3)cc2)c1
724	CCCNC(=O)CC1CCN(C(=O)c2[nH]c(C)c(C(=O)OC(C)C)c2C)CC1
901	CCCN(CC1CCOC1)C(=O)Nc1cc(Cl)ccc1C (stereo not drawn)
938	CC1=C(C(=O)OC(C)C)C(c2cccc(Oc3ccccc3)c2)NC(=O)N1 (stereo not drawn)
1090	FC(F)(F)c1cccc(Nc2c(-c3ccc(Cl)cc3)nc3cnccn23)c1
807	CC(C)n1cnc(S(=O)(=O)N2CCC(C(=O)N3CCN(c4ccccc4F)CC3)CC2)c1
623	CCN1CCN(C(=O)c2nnc(-c3ccc(S(=O)(=O)N4CCCC4)cc3)o2)CC1
800	Cc1ccc(N2CCN(C(=O)c3csc(C(=O)NC4CC4)n3)CC2)cc1
795	COc1cc(Cl)ccc1C(=O)N1CCN(c2cc(-c3cccs3)[nH]n2)CC1
942	O=C(NCc1ccco1)C1CN(S(=O)(=O)c2ccccc2)CC12CCCCC2 (stereo not drawn)
834	COC(=O)c1ccccc1NC(=O)C1CCCN(c2nnc(C)c3c(C)n(-c4ccccc4)nc23)C1 (stereo not drawn)
760	O=C(NCC1COc2ccccc2O1)c1cc(-c2cccnc2)nc2ccccc12 (stereo not drawn)
636	COCCCNC(=O)Cn1ccc2c(SCc3ccccc3)nccc21
804	CCCC(=O)Nc1cc2c(cc1N1CCC(C(=O)OCC)CC1)n(C)c(=O)c(=O)n2C

RP-LC retention time [s]	SMILES
986	O=C(NC1CCCCC1)c1ccc2ccnc(N3CCN(c4ccc(Cl)cc4)CC3)c2c1
728	CC(C)CNC(=O)C1CCN(C(=O)Nc2ccc(NC(=O)NC3CCCC3)cc2)CC1
978	CCn1c(=O)sc2cc(S(=O)(=O)N3CCC(C(=O)Nc4cc(C)ccc4OC)CC3)ccc21
830	O=C(CSc1ncnc2c1nnn2Cc1ccccc1)Nc1ccc2c(c1)OCCO2
667	COc1ccc(Cl)cc1NC(=O)NCc1ccnc(N2CCSCC2)c1
680	COc1ccc(N2CC(C(=O)N3CCC(C(=O)Nc4nc(C)cs4)CC3)CC2=O)cc1 (stereo not drawn)
795	Cc1ccc(C)c(NC(=O)Cc2c(C(=O)O)c(C)cn2C)c1
652	CCOc1ccc(NC(=O)Cn2c(N3CCOCC3)nc3cc(C)n(C)c3c2=O)cc1
655	O=C(Cn1nc2c(cc1=O)CCCCC2)Nc1nc(-c2ccccn2)cs1
621	O=C(Cc1ccc(-c2ccc(OCCN3CCOCC3)cc2)cn1)NCc1ccccc1
726	CCC(=O)N1CCc2cc(N3CC(C(=O)N4CCC(C)CC4)CC3=O)ccc21 (stereo not drawn)
732	Cc1cc(N2CCN(c3ccccn3)CC2)n2ncc(-c3ccc(F)cc3)c2n1
1160	COc1cccc(-n2c(=O)c3sccc3n(Cc3nc(-c4ccc(C)c(C)c4)no3)c2=O)c1
894	O=C(Cn1ccc2ccn(Cc3ccccc3F)c2c1=O)NCc1ccc2c(c1)OCO2
654	Cc1nncn1C1CCN(S(=O)(=O)c2ccccc2F)CC1
963	COc1ccc(N2CC(c3noc(-c4cc(Cl)ccc4OC)n3)CC2=O)cc1 (stereo not drawn)
724	CC(=O)NCC(=O)N1c2ccccc2CC1c1nc(C(C)C)no1 (stereo not drawn)
621	NC(=O)c1cccc2[nH]c(-c3ccc(C4CCCN4)cc3F)nc12 (stereo not drawn)
880	CCN(CC)S(=O)(=O)c1ccc2c(c1)cc(C(=O)N1CCN(c3ncccn3)CC1)n2C
735	COC(=O)c1cccc(NC(=O)C2CCCN(c3nnc4ccc(Cl)cn34)C2)c1 (stereo not drawn)

SMILES	RP-LC retention time [s]
COc1ccc2c(c1)C1(CCN(C(=O)c3ccc(C)cc3)C1)C(=O)N2C (stereo not drawn)	785
CCN1CCN(C(=O)Cc2c(C)nn(-c3nc(-c4ccc(C)cc4)cs3)c2C)CC1	730
C=C(C)[C@H]1O[C@H]2CC[C@@]3(C)[C@@](O)(CC[C@H]4[C@@H]5OC(C)(C)[C@H]6C[C@@H]7C(=C)Cc8c(Cl)cc9[nH]c(c5c9c8[C@@]76O)[C@@]43C)[C@]23O[C@@H]3[C@H]1O	1180
